pIC50: −log10 of the molar value.
Tests used:
[1] = target: CDK7/CyclinH/MAT1 (Homo sapiens (Human), UniProt P50613); assay: In vitro CDK7/CyclinH/MAT1 enzyme activity assay (TR-FRET); assay type: biochemical; conditions: Ulight-MBP peptide, 25° C. 60 minutes
Experimental: Experimental Example 1: In Vitro CDK7/[…] Enzyme Activity Assay
CDK7/CyclinH/MAT1 was purchased from CARNA. Ulight-MBP peptide, Eu-MBP antibody, and 1× detection buffer were purchased from PerkinElmer. High-purity ATP was purchased from Promega. EDTA was purchased from Sigma. Nivo multimode microplate reader (PerkinElmer).
(§1) Preparation of kinase buffer: the kinase buffer containing 50 mM HEPES, 1 mM EDTA, 10 mM MgCl2, 0.01% Brij-35, pH 7.4.
(§2) 2.38 g of HEPES, 58 mg of EDTA, 406 mg of MgCl2, and 20 mg of Brij-35 were added to 200 mL of buffer, and the pH was adjusted to 7.4.
(§3) 100 μL of 1 M EDTA stock solution was mixed with 0.625 μL of 1× detection buffer and 1725 μL of distilled water to prepare the stop solution.
Enzyme, Ulight-MBP peptide, ATP, and inhibitors were diluted with the kinase buffer.
The Eu-MBP antibody was diluted to a concentration of 8 nM/L using detection buffer.
(§4) The compounds to be tested were 5-fold diluted with a multi-channel pipette to the 8th concentration, i.e., from 40 μM to 0.512 nM, with a final DMSO concentration of 4%. The experiment was set up in duplicate wells. 2.5 μL of each concentration gradient of the inhibitor was added to the microplate, followed by 5 μL of CDK7/CyclinH/MAT1 enzyme (5 ng), and 2.5 μL of a mixture of substrate and ATP (4 mM ATP, 50 nM Ulight-MBP peptide). At this point, the final concentration gradient of the compound was 10 μM diluted to 0.128 nM. The reaction system was reacted at 25° C. for 60 minutes. After the reaction, 5 μL of stop solution was added to each well, and the reaction was continued at 25° C. for 5 minutes. After stopping the reaction, 5 μL of Eu-MBP antibody dilution was added to each well, and the mixture was reacted at 25° C. for 60 minutes. Data were then collected using the PerkinElmer Nivo multimode microplate reader in TR-FRET mode (excitation wavelength: 320 nm, emission wavelength: 665 nm).
Using the equation (Sample−Min)/(Max−Min)*100% to convert the raw data into inhibition rate, the IC50 value may be obtained by curve fitting with four parameters (obtained by “log (inhibitor) vs. response—Variable slope” mode in GraphPad Prism). Table 1 provides the CDK7/CyclinH/MAT1 enzymatic inhibitory activity of the compounds of the present disclosure.

[2] = target: CDK2/CyclinE1 (Homo sapiens (Human), UniProt P24941); assay: In vitro CDK2/CyclinE1 enzyme activity assay (TR-FRET); assay type: biochemical; conditions: Ulight-4E-BP1 peptide, 25° C. 120 minutes
Experimental: Experimental Example 2: In Vitro CDK2/[…] Enzyme Activity Assay
CDK2/CyclinE1 was purchased from SignalChem. Ulight-4E-BP1 peptide, Eu-anti-phospho-tyrosine antibody, and 1× detection buffer were purchased from PerkinElmer. High-purity ATP was purchased from Promega. EDTA was purchased from Sigma. Nivo multimode microplate reader (PerkinElmer).
as §1, §2, §3
Enzyme, Ulight-4E-BP1 peptide, ATP, and inhibitors were diluted with the kinase buffer.
The Eu-anti-phospho-tyrosine antibody was diluted to a concentration of 8 nM/L using detection buffer.
as §4, with “μL of CDK2/CyclinE1 enzyme (10” for “μL of CDK7/CyclinH/MAT1 enzyme (5”, “CDK2/CyclinE1 enzyme (10 ng), and” for “CDK7/CyclinH/MAT1 enzyme (5 ng), and”, “mM ATP, 100 nM Ulight-4E-BP1” for “mM ATP, 50 nM Ulight-MBP”, “100 nM Ulight-4E-BP1 peptide). At” for “50 nM Ulight-MBP peptide). At”, “C. for 120 minutes. After” for “C. for 60 minutes. After”, “μL of Eu-anti-phospho-tyrosine antibody dilution” for “μL of Eu-MBP antibody dilution”
Using the equation (Sample−Min)/(Max−Min)*100% to convert the raw data into inhibition rate, the IC50 value may be obtained by curve fitting with four parameters (obtained by “log (inhibitor) vs. response—Variable slope” mode in GraphPad Prism). Table 1 provides the CDK2/CyclinE1 enzymatic inhibitory activity of the compounds of the present disclosure.

[3] = tested on: OVCAR3 cells; assay: In vitro OVCAR3 cell activity assay (CellTiter-Glo proliferation); assay type: cell-based; conditions: Homo sapiens, OVCAR-3, 72 h, 3 days incubation
Experimental: Experimental Example 5: In Vitro OVCAR3 Cell Activity Assay
1640 culture medium, fetal bovine serum, penicillin/streptomycin antibiotics were purchased from WISENT. CellTiter-Glo (cell viability chemiluminescence detection reagent) reagent was purchased from Promega. OVCAR3 cell line was purchased from Nanjing Cobioer Biosciences Co. Ltd. Nivo multimode microplate reader (PerkinElmer).
The OVCAR3 cells were seeded in a white 96-well plate, with 80 μL of cell suspension per well, containing 2000 OVCAR3 cells each. The cell plate was incubated overnight in a CO2 incubator.
The compounds to be tested were 5-fold diluted with a multi-channel pipette to the 8th concentration, i.e., diluted from 200 μM to 0.512 nM, and the experiment was set up in duplicate wells. 78 μL of culture medium was added to an intermediate plate, and then 2 μL of gradient diluted compound per well was transferred to the intermediate plate according to the corresponding position. After mixing well, the compound was transferred to the cell plate at 20 μL per well. The concentration of the compound transferred to the cell plate ranged from 1 μM to 0.0026 nM. The cell plate was incubated in a CO2 incubator for 3 days. Another cell plate was prepared to measure the signal on the day of drug addition as the maximum value (denoted as Max in the equation below) for data analysis. 25 μL of cell viability chemiluminescence detection reagent was added to each well of this cell plate, and incubated at room temperature for 10 minutes to stabilize the luminescent signal. A multimode microplate reader was used for reading. […]
Using the equation (Sample−Min)/(Max−Min)*100% to convert the raw data into inhibition rate, the IC50 value may be obtained by curve fitting with four parameters (obtained by “log (inhibitor) vs. response—Variable slope” mode in GraphPad Prism). Table 1 provides the inhibitory activity of the compounds of the present disclosure on the proliferation of OVCAR3 cells.

Sequence of CDK7/CyclinH/MAT1 (P50613 whole entry): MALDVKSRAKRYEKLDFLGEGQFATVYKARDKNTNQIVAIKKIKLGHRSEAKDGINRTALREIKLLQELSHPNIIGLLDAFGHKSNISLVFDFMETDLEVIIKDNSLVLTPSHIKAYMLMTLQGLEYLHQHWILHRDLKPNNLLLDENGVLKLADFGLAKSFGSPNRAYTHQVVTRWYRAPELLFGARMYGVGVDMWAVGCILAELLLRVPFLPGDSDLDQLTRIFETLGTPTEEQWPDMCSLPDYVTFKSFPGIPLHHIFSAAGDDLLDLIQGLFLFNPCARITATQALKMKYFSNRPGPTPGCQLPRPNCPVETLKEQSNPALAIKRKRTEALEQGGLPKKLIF
Sequence of CDK7/CyclinH/MAT1 (P51946 whole entry partner): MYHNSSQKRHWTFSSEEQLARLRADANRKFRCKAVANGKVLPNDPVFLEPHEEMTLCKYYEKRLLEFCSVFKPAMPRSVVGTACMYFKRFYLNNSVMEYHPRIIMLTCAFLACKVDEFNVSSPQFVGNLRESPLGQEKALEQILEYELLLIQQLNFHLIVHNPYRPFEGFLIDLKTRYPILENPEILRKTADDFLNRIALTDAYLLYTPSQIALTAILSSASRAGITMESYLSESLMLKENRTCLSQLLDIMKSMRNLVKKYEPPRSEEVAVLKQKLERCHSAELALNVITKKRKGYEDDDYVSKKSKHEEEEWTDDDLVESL
Sequence of CDK7/CyclinH/MAT1 (P51948 whole entry partner): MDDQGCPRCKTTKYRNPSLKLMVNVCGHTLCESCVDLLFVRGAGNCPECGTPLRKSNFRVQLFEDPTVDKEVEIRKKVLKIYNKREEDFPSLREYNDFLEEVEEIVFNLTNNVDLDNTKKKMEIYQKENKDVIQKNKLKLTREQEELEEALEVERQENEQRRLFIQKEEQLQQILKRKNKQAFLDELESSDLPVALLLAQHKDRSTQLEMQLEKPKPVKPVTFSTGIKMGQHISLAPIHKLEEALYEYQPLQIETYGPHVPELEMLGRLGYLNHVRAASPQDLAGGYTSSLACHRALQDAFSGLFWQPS

SMILES	pIC50 [1]	pIC50 [2]	pIC50 [3]
CN1CCCCN2CCC[C@@H](C2)Nc2ncc(C(F)(F)F)c(n2)-c2c[nH]c3c(P(C)(C)=O)c(ccc23)C1=O [Formate of compound 1]	9.00	6.60	9.52
CN1CCCCN2CCCC[C@@H](C2)Nc2ncc(C(F)(F)F)c(n2)-c2c[nH]c3c(P(C)(C)=O)c(ccc23)C1=O [Compound 3]	8.96	< 6.00	9.22
CP(C)(=O)c1c2ccc3c(c[nH]c13)-c1nc(ncc1C(F)(F)F)N[C@H]1CCCN(CCCCCCO2)C1 [Compound 4]	8.80	< 6.00	9.70
CP(C)(=O)c1c2ccc3c(c[nH]c13)-c1nc(ncc1C(F)(F)F)N[C@H]1CCCCN(CCCCNC2=O)C1 [Compound 6]	8.85	< 6.00	9.22
CP(C)(=O)c1c2ccc3c(c[nH]c13)-c1nc(ncc1C(F)(F)F)N[C@H]1CCCN(CCCCNC2=O)C1 [Compound 5]	8.92	6.13	9.70
